Here are results for 28 compounds from patent US7223759B2, “Antibacterial 3,5-diaminopiperidine-substituted aromatic and heteroaromatic compounds” (Anadys Pharmaceuticals, Inc., priority 2003, dated 2007).

The first test concerns Escherichia coli (ATCC25922) or Staphylococcus aureus (ATCC25923). The test is described as follows: Antibacterial MIC, microdilution method in Mueller-Hinton medium. The format is cell-based. The following applies: Escherichia coli, 18 h, MIC in E. coli or S. aureus; two-fold serial dilutions 64 to 0.5 μg/ml in duplicate; 18 hours of incubation at 35° C.; read-out: Potency (MIC). Put shortly: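 Two-fold serial dilutions from 64 to 0.5 μg/ml, in duplicate, by broth microdilution in Mueller-Hinton medium (NCCLS M7-A5). MIC taken as the lowest concentration preventing visible growth after 18 h at 35° C.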
On to `COc1ccc(-c2ccccc2)cc1Nc1nc(N2C[C@H](N)C[C@H](N)C2)nc(N2C[C@H](N)C[C@H](N)C2)n1` [N-(4-methoxy-biphenyl-3-yl)-4,6-Bis-((3R,5S)-3,5-0diamino-piperidin-1-yl)-[1,3,5]triazine-2-amine], for which the MIC is less than 64 mg/L.

Take `Cc1ccc(S(=O)(=O)N(Cc2ccccc2)c2ccc(Nc3nc(N4CCNCC4)nc(N4C[C@H](N)C[C@H](N)C4)n3)cc2O)cc1` [N-Benzyl-N-{4-[4-((3R,5S)-3,5-diamino-piperidin-1-yl)-6-piperazin-1-yl-[1,3,5]triazin-2-ylamino]-2-hydroxy-phenyl}-4-methyl-benzenesulfonamide]: the MIC is less than 64 mg/L.

Consider `Cl.O=C(Nc1ccc(O)cc1)c1ccc(Nc2nc(N3CCCCC3)nc(N3CCCCC3)n2)cc1O` [N-[3-hydroxy-4-(4-hydroxy-phenylcarbamoyl)-phenyl]-4,6-Bis((3R,5S)-3,5-0diamino-piperidin-1-yl)-[1,3,5]triazine-2-amine], for which the MIC is less than 16 mg/L.

Regarding `Cl.O=C(CC(=O)c1ccc(Nc2nc(N3CCCCC3)nc(N3CCCCC3)n2)cc1)Nc1cccc(Br)c1` [N-{4-[2-(3-bromo-phenylcarbamoyl)-acetyl]-phenyl}-4,6-Biss-((3R,5S)-3,5-diamino-piperidin-1-yl)-[1,3,5]triazine-2-amine], the MIC is less than 16 mg/L.

Turning to `N[C@@H]1C[C@H](N)CN(c2nc(Nc3ccc(NC(=O)C45CC6CC(CC(C6)C4)C5)c(O)c3)nc(N3C[C@H](N)C[C@H](N)C3)n2)C1` [N-{4-[(adamantane-1-carbonyl)-amino]-3-hydroxy-phenyl}-4,6-Bis-((3R,5S)-3,5-diamino-piperidin-1-yl)-[1,3,5]triazine-2-amine], the MIC is less than 16 mg/L.

Turning to `COCCNC(=O)c1ccc(Nc2nc(N3C[C@H](N)C[C@H](N)C3)nc(N3C[C@H](N)C[C@H](N)C3)n2)cc1O` [N-[3-hydroxy-4-(2-methoxy-ethylcarbamoyl)-phenyl]-4,6-Bis-((3R,5S)-3,5-diamino-piperidin-1-yl)-[1,3,5]triazine-2-amine], the minimum inhibitory concentration (MIC) is more than 64 mg/L.

In the case of `CC(=O)c1ccc(Nc2nc(N3C[C@H](N)C[C@H](N)C3)nc(N3C[C@H](O)C[C@@H](O)C3)n2)cc1` [1-{4-[4-((3R,5S)-3,5-Diamino-piperidin-1-yl)-6-((3R,5R)-3,5-dihydroxy-piperidin-1-yl)-[1,3,5]triazin-2-ylamino]-phenyl}-ethanone], the MIC was more than 64 mg/L.

With `N[C@@H]1C[C@H](N)CN(c2nc(Nc3ccc(NC(=O)C(F)(F)F)cc3)nc(N3C[C@H](N)C[C@H](N)C3)n2)C1` [N-[4-(2,2,2-trifluoro-acetylamino)-phenyl]-4,6-Bis-((3R,5S)-3,5-diamino-piperidin-1-yl)-[1,3,5]triazine-2-amine], the MIC is more than 64 mg/L.

`COc1cc(NC(=O)c2ccc(Nc3nc(N4CCCCC4)nc(N4CCCCC4)n3)cc2O)cc(OC)c1OC.Cl` [N-[3-hydroxy-4-(3,4,5-trimethoxy-phenylcarbamoyl)-phenyl]-4,,6-Bis-((3R,5S)-33,5-diamino-piperidin-1-yl)-[1,3,5]triazine-2-amine]: the MIC was less than 64 mg/L.

As to `C=CCOC1OC(CO)C(O)C(O)C1Nc1nc(N2C[C@H](N)C[C@H](N)C2)nc(N2C[C@H](N)C[C@H](N)C2)n1.Cl` (stereo partly drawn) [N-(2-allyloxy-4,5-dihydroxy-6-hydroxymethyl-tetrahydro-pyran-3-yl)-4,6-Bis-((3R,5S)-3,5-diamino-piperidin-1-yl)-[1,3,5]triazine-2-amine], the minimal inhibitory concentration (MIC) is more than 64 mg/L.

Staying with this test, now noted: Escherichia coli, 18 h, read-out: Potency (MIC).
As for `Cc1ccc2nc(-c3ccc(Nc4nc(N5C[C@H](N)C[C@H](N)C5)nc(N5C[C@H](N)C[C@H](N)C5)n4)cc3)sc2c1` [N-[4-(6-methyl-benzothiazol-2-yl)-phenyl]-4,6-Bis-((3R,5S)-3,5-diamino-piperidin-1-yl)-[1,3,5]triazine-2-amine], the MIC was less than 16 mg/L.

For `NC[C@@H]1C[C@H](N)CN1c1nc(Nc2ccc(S(=O)(=O)Nc3ccc4cn[nH]c4c3)cc2)nc(N2C[C@H](N)C[C@H](N)C2)n1` [4-[4-((2S,4S)-4-Amino-2-aminomethyl-pyrrolidin-1-yl)-6-((3R,5S)-3,5-diamino-piperidin-1-yl)-[1,3,5]triazin-2-ylamino]-N-(1H-indazol-6-yl)-benzenesulfonamide], the minimum inhibitory concentration (MIC) was more than 64 mg/L.

Regarding `Cc1cc(=O)oc2cc(Nc3nc(N4C[C@H](N)C[C@H](N)C4)nc(N4C[C@H](O)C[C@H]4CN)n3)ccc12` [7-[4-((2S,4R)-2-Aminomethyl-4-hydroxy-pyrrolidin-1-yl)-6-((3R,5S)-3,5-diamino-piperidin-1-yl)-[1,3,5]triazin-2-ylamino]-4-methyl-chromen-2-one], the minimal inhibitory concentration (MIC) was more than 64 mg/L.

As to `N[C@@H]1C[C@H](N)CN(c2ccc(NC(=O)c3ccc4ccccc4c3O)cc2)C1` [1-Hydroxy-naphthalene-2-carboxylicacid [4-((3S,5R)-3,5-diamino-piperidin-1-yl)-phenyl]-amide], the MIC is more than 64 mg/L.

As for `Cc1ccc(C(=O)Nc2ccc(Nc3nc(N4C[C@H](N)C[C@H](N)C4)nc(N4C[C@@H](N)C[C@@H](O)C4)n3)cc2O)cc1` [N-{4-[4-((3S,5R)-3-Amino-5-hydroxy-piperidin-1-yl)-6-((3R,5S)-3,5-diamino-piperidin-1-yl)-[1,3,5]triazin-2-ylamino]-2-hydroxy-phenyl}-4-methyl-benzamide], the MIC was less than 64 mg/L.

For `COc1ccc(NC(=O)c2cccc(O)c2O)c(Nc2nc(N3C[C@H](N)C[C@H](N)C3)nc(N3C[C@H](N)C[C@H](N)C3)n2)c1` [N-[2-(2,3-dihydroxy-benzoylamino)-5-methoxy-phenyl]-4,6-Bis-((3R,5S)-3,5-diamino-piperidin-1-yl)-[1,3,5]triazine-2-amine], the MIC is more than 64 mg/L.

Regarding `N[C@@H]1C[C@H](N)CN(c2nc(Nc3ccc(NC(=O)c4ccc(Cl)cc4)c(O)c3)nc(N3C[C@H](N)C[C@H](N)C3)n2)C1` [N-[4-(4-chloro-benzoylamino)-3-hydroxy-phenyl]-4,6-Bis-((3R,5S)-3,5-diamino-piperidin-1-yl)-[1,3,5]triazine-2-amine], the MIC was less than 16 mg/L.

As for `Cc1ccc(C(=O)Nc2ccc(Nc3nc(N4C[C@H](N)C[C@H](N)C4)nc(N4C[C@H](N)C[C@H](N)C4)n3)cc2)c(O)c1` [N-[4-(2-hydroxy-4-methyl-benzoylamino)-phenyl]-4,6-Bis-((3R,5S)-3,5-diamino-piperidin-1-yl)-[1,3,5]triazine-2-amine], the MIC is less than 16 mg/L.

Take `N[C@@H]1C[C@H](N)CN(c2nc(Nc3ccc(NC(=O)c4ccc5ccccc5c4O)cc3)nc(N3C[C@@H](O)[C@@H](O)C3)n2)C1` [1-Hydroxy-naphthalene-2-carboxylic acid {4-[4-((3S,5R)-3,5-diamino-piperidin-1-yl)-6-((3R,4S)-3,4-dihydroxy-pyrrolidin-1-yl)-[1,3,5]triazin-2-ylamino]-phenyl}-amide]: the MIC was less than 64 mg/L.

As to `N[C@@H]1C[C@H](N)CN(c2nc(Nc3ccc(C(=O)CC(=O)Nc4ccc5c(c4)OC(F)(F)O5)cc3)nc(N3C[C@H](N)C[C@H](N)C3)n2)C1` [N-{4-[2-(2,2-difluoro-benzo[1,3]dioxol-5-ylcarbamoyl)-acetyl]-phenyl}-4,6-Bis-((3R,5S)-3,5-diamino-piperidin-1-yl)-[1,3,5]triazine-2-amine], the MIC was less than 16 mg/L.

As for `N[C@@H]1C[C@H](N)CN(c2nc(Nc3ccc(NC(=O)c4cccc(O)c4O)c(O)c3)nc(N3C[C@H](N)C[C@H](N)C3)n2)C1` [N-[4-(2,3-dihydroxy-benzoylamino)-3-hydroxy-phenyl]-4,6-Bis-((3R,5S)-3,5-diamino-piperidin-1-yl)-[1,3,5]triazine-2-amine], the MIC is less than 16 mg/L.

As to `N[C@@H]1C[C@H](N)CN(c2nc(NNc3cccc(F)c3)nc(N3C[C@H](N)C[C@H](N)C3)n2)C1` [N-(4,6-Bis-((3R,5S)-3,5-diamino-piperidin-1-yl)-[1,3,5]triazin-2-yl)-N′-(3-Fluoro-phenyl)-hydrazine], the minimum inhibitory concentration (MIC) was more than 64 mg/L.

As to `COc1ccc(O)c(C(=O)Nc2ccc(Nc3nc(N4C[C@H](N)C[C@H](N)C4)nc(N4C[C@H](N)C[C@H](N)C4)n3)cc2O)c1` [N-[3-hydroxy-4-(2-hydroxy-5-methoxy-benzoylamino)-phenyl]-4,6-Bis-((3R,5S)-3,5-diamino-piperidin-1-yl)-[1,3,5]triazine-2-amine], the MIC is less than 16 mg/L.

Regarding `N[C@@H]1C[C@H](N)CN(c2nc(Nc3ccc(NC(=O)c4ccc(F)c(F)c4O)cc3)nc(N3C[C@H](N)C[C@H](N)C3)n2)C1` [N-[4-(3,4-difluoro-2-hydroxy-benzoylamino)-phenyl]-4,6-Bis-((3R,5S)-3,5-diamino-piperidin-1-yl)-[1,3,5]triazine-2-amine], the MIC was less than 64 mg/L.

On to `N[C@@H]1C[C@H](N)CN(c2nc(Nc3cccc(NC(=O)c4ccc(Cl)cc4O)c3)nc(N3C[C@H](N)C[C@H](N)C3)n2)C1` [N-[3-(4-chloro-2-hydroxy-benzoylamino)-phenyl]-4,6-Bis-((3R,5S)-3,5-diamino-piperidin-1-yl)-[1,3,5]triazine-2-amine], for which the MIC was less than 16 mg/L.

With `NC[C@@H]1CN(c2nc(Nc3ccc4c(c3)-c3ccccc3C4=O)nc(N3C[C@H](N)C[C@H](N)C3)n2)CC[C@@H]1O` [3-[4-((3R,4S)-3-Aminomethyl-4-hydroxy-piperidin-1-yl)-6-((3R,5S)-3,5-diamino-piperidin-1-yl)-[1,3,5]triazin-2-ylamino]-fluoren-9-one], the MIC is more than 64 mg/L.

Consider `N[C@@H]1C[C@H](N)CN(c2nc(Nc3ccc(NC(=O)c4ccc(F)cc4O)c(Cl)c3)nc(N3C[C@H](N)C[C@H](N)C3)n2)C1` [N-[3-chloro-4-(4-fluoro-2-hydroxy-benzoylamino)-phenyl]-4,6-Bis-((3R,5S)-3,5-diamino-piperidin-1-yl)-[1,3,5]triazine-2-amine], for which the MIC is more than 64 mg/L.

Turning to `C=Cc1ccc(Nc2nc(N3C[C@H](N)C[C@H](N)C3)nc(N3C[C@H](N)C[C@H](N)C3)n2)cc1` [N-(4-vinyl-phenyl)-4,6-Bis-((3R,5S)-3,5-diamino-piperidin-1-yl)-[1,3,5]triazine-2-amine], the MIC is less than 64 mg/L.
